In ChEMBL document CHEMBL4831515 (J Med Chem, 2021):

Assays:
in vitro = conditions: human, liver microsomes
[1] = tested on: Human immunodeficiency virus 1; assay: Antiviral activity against HIV1 3B infected in human MT4 cells assessed as reduction in virus-induced cytopathogenic effect by MTT assay; conditions: Human immunodeficiency virus 1, 3B
[2] = tested on: Human immunodeficiency virus 2; assay: Antiviral activity against wild type HIV2 ROD infected in human MT4 cells assessed as reduction in virus-induced cytopathogenic effect by MTT assay; conditions: Human immunodeficiency virus 2, ROD
[3] = AUC (0 to infinity) in Sprague-Dawley rat at 20 mg/kg, po measured after 15 to 720 mins by LC-MS/MS analysis; assay type: ADME, organism-based; set-up: route oral, time lower 15 min, dose 20 mg/kg, time upper 720 min; conditions: in vivo
[4] = Stability in human liver microsomes assessed as compound remaining preincubated for 10 mins followed by phosphate buffer addition and incubated for 1 hr and subsequent addition of NADPH regenerating system and measured after 60 mins by LC-MS/MS analysis; assay type: ADME, Microsome; conditions: time 190 min, read-out: Stability
[5] = Cmax in Sprague-Dawley rat at 2 mg/kg, iv measured after 5 to 600 mins by LC-MS/MS analysis; assay type: ADME, organism-based; set-up: route intravenous, time lower 5 min, dose 2 mg/kg, time upper 600 min; conditions: in vivo
[6] = tested on: Human immunodeficiency virus 1; assay: Antiviral activity against wild type HIV1 harboring Y181C mutant infected in human MT4 cells assessed as reduction in virus-induced cytopathogenic effect by MTT assay; conditions: Human immunodeficiency virus 1, MT4
[7] = MRT (0 to infinity) in Sprague-Dawley rat at 20 mg/kg, po measured after 15 to 720 mins by LC-MS/MS analysis; assay type: ADME, organism-based; conditions: in vivo, time 15-720 min
[8] = tested on: Human immunodeficiency virus 1; conditions: Human immunodeficiency virus 1, MT4
[9] = tested on: Human immunodeficiency virus 1; assay: Antiviral activity against HIV1 harboring L100I mutant infected in human MT4 cells assessed as reduction in virus-induced cytopathogenic effect by MTT assay; conditions: Human immunodeficiency virus 1, MT4
[10] = Cytotoxicity against human MT4 cells assessed as reduction in cell viability by MTT assay
[11] = tested on: Human immunodeficiency virus 1; assay: Antiviral activity against wild type HIV1 harboring Y188L mutant infected in human MT4 cells assessed as reduction in virus-induced cytopathogenic effect by MTT assay; conditions: Human immunodeficiency virus 1, MT4
[12] = tested on: Human immunodeficiency virus 1; assay: Antiviral activity against HIV1 harboring K103N mutant infected in human MT4 cells assessed as reduction in virus-induced cytopathogenic effect by MTT assay; assay type: functional, organism-based; conditions: Human immunodeficiency virus 1, MT4
[13] = Half life in human liver microsomes preincubated for 10 mins followed by phosphate buffer addition and incubated for 1 hr and subsequent addition of NADPH regenerating system and measured after 2 hrs by LC-MS/MS analysis
[14] = AUC(0 to last) in Sprague-Dawley rat at 2 mg/kg, iv measured after 5 to 600 mins by LC-MS/MS analysis; assay type: ADME, organism-based; set-up: route intravenous, dose 2 mg/kg, time upper 600 min, time lower 5 min; conditions: in vivo
[15] = Half life in Sprague-Dawley rat at 2 mg/kg, iv measured after 5 to 600 mins by LC-MS/MS analysis; assay type: ADME, organism-based; conditions: in vivo, time 5-600 min
[16] = Tmax in Sprague-Dawley rat at 2 mg/kg, iv measured after 5 to 600 mins by LC-MS/MS analysis; assay type: ADME, organism-based; conditions: in vivo, time 5-600 min
[17] = Acute toxicity in Kunming mouse assessed as effect on body weight at 1000 mg/kg, ig measured every day for 7 days; assay type: organism-based; conditions: in vivo, po, 168 h, time 7 day
[18] = Acute toxicity in ig dosed Kunming mouse measured every day for 7 days; assay type: organism-based; conditions: in vivo, po, time 7 day
[19] = Tmax in Sprague-Dawley rat at 20 mg/kg, po measured after 15 to 720 mins by LC-MS/MS analysis; assay type: ADME, organism-based; conditions: in vivo, time 15-720 min
[20] = AUC (0 to last) in Sprague-Dawley rat at 20 mg/kg, po measured after 15 to 720 mins by LC-MS/MS analysis; assay type: ADME, organism-based; set-up: route oral, time lower 15 min, dose 20 mg/kg, time upper 720 min; conditions: in vivo
[21] = tested on: Human immunodeficiency virus 1; assay: Antiviral activity against HIV1 harboring F227L/V106A mutant infected in human MT4 cells assessed as reduction in virus-induced cytopathogenic effect by MTT assay; assay type: functional, organism-based; conditions: Human immunodeficiency virus 1, MT4
[22] = Acute toxicity in Kunming mouse assessed as induction of poisoning at 1000 mg/kg, ig measured every day for 7 days; assay type: organism-based; conditions: in vivo, po, 168 h, time 7 day
[23] = Cmax in Sprague-Dawley rat at 20 mg/kg, po measured after 15 to 720 mins by LC-MS/MS analysis; assay type: ADME, organism-based; set-up: route oral, dose 20 mg/kg, time 15-720 min; conditions: in vivo
[24] = AUC(0 to infinity) in Sprague-Dawley rat at 2 mg/kg, iv measured after 5 to 600 mins by LC-MS/MS analysis; assay type: ADME, organism-based; set-up: route intravenous, time 5-600 min, dose 2 mg/kg; conditions: in vivo
[25] = Acute toxicity in Kunming mouse assessed as effect on growth at 1000 mg/kg, ig measured every day for 7 days; assay type: organism-based; conditions: in vivo, po, 168 h, time 7 day
[26] = Acute toxicity in Kunming mouse assessed as mortality at 1000 mg/kg, ig measured every day for 7 days; assay type: organism-based; conditions: in vivo, po, 168 h, time 7 day
[27] = Half life in Sprague-Dawley rat at 20 mg/kg, po measured after 15 to 720 mins by LC-MS/MS analysis; assay type: ADME, organism-based; conditions: in vivo, time 15-720 min
[28] = tested on: Human immunodeficiency virus 1; assay: Antiviral activity against HIV1 RES056 infected in human MT4 cells assessed as reduction in virus-induced cytopathogenic effect by MTT assay; conditions: Human immunodeficiency virus 1, RES056, MT4
[29] = target: Human immunodeficiency virus type 1 reverse transcriptase (Human immunodeficiency virus 1, UniProt Q72547); assay: Inhibition of wild type HIV1 reverse transcriptase assessed as reduction in biotin-dUTP incorporation into […] incubated for 1 hrs by ELISA
[30] = MRT (0 to infinity) in Sprague-Dawley rat at 2 mg/kg, iv measured after 5 to 600 mins by LC-MS/MS analysis; assay type: ADME, organism-based; conditions: in vivo, time 5-600 min
[31] = Clearance in Sprague-Dawley rat at 2 mg/kg, iv measured after 5 to 600 mins by LC-MS/MS analysis; assay type: ADME, organism-based; conditions: in vivo, time 5-600 min
[32] = Volume of distribution in Sprague-Dawley rat at 2 mg/kg, iv measured after 5 to 600 mins by LC-MS/MS analysis; assay type: ADME, organism-based; conditions: in vivo, time 5-600 min

SMILES: Cc1cc(/C=C/C#N)cc(C)c1Oc1nc(Nc2ccc(C#N)cc2)nc2c1CSCC2
- microsomal CLint at 2 h (in vitro): 188 µL/min/mg
- EC50 [1]: 9.67 nM
- EC50 [2]: > 284000 nM
- AUC(0-inf) [3]: 24 ng·h/mL
- remaining at 1 h [4]: 0.3%
- Cmax [5]: 8880 ng/mL
- EC50 [6]: 14.9 nM
- MRT inf [7]: 174 min
- EC50 [8]: 9.78 nM
- EC50 [9]: 4.44 nM
- CC50 [10]: 284000 nM
- EC50 [11]: 54.5 nM
- EC50 [12]: 4.44 nM
- half-life at 2 h [13]: 7.4 min
- AUC(0-t) [14]: 1510 ng·h/mL
- half-life [15]: 116 min
- Tmax [16]: 4.98 min
- Activity [17]: Non-Toxic
- LD50 at 168 h [18]: > 1000 mg/kg
- Tmax [19]: 15 min
- AUC(0-t) [20]: 19.5 ng·h/mL
- EC50 [21]: 42.9 nM
- Activity [22]: Non-Toxic
- Cmax [23]: 16.6 ng/mL
- AUC(0-inf) [24]: 1510 ng·h/mL
- Activity [25]: Non-Toxic
- Activity [26]: Non-Toxic
- half-life [27]: 121 min
- EC50 [28]: 47.8 nM
- IC50 [29]: 81 nM
- MRT inf [30]: 30 min
- clearance [31]: 23 mL/min/kg
- Vd [32]: 0.702 L/kg
